# Assay results from patent publication US20230391824A1, “RATIONALE, DESIGN, SYNTHESIS AND VALIDATION OF A SMALL MOLECULE ANTICANCER AGENT” (priority 2021, published 2023).
# Legend:
# [1] = test system: NT-2 testicular cancer cells; assay: Flow cytometric (propidium iodide) cell cycle analysis of NT-2 cells; type: cell-based; conditions: first 24h
# Description: FIG. 9: NT-2, testicular cancer cells, were incubated with Compound of formula (I) isomers for 24h and subjected to Flow Cytometric analysis to determine the alterations in cancer cell cycle. […] Therefore, only the P1 isomer of Compound of formula (I) was investigated further to determine its in vitro and in vivo efficacy.
# The method for Propidium Iodide (PI) based cell cycle analysis was performed as per the instructions given by the manufacturer (AB139418; Abcam). Briefly NT-2 cells treated with Compound of formula (I) versions were harvested in single cell suspensions with each experimental condition containing two million cells, fixed in 66% Ethanol overnight at 4° C. The ethanol was removed thoroughly by centrifugation, followed by rehydration of cells in PBS with a repeat of centrifugation. Cells were stained in PI (1%) and RNase solution (1%) in PBS for 30 minutes at 37° C. in the dark. The cells were analyzed immediately on the Flow Cytometer.
# [2] = test system: BHQ1-pre-let7a and EGFP-Lin28A bound complexes; assay: FRET assay, displacement of BHQ1-pre-let7a from EGFP-Lin28A; type: binding; conditions: at 1 μM; 19B-let7a at 100 nM
# Description: This method was adapted from Roos et al (2016). HEK 293-T cells (ATCC) were cultured as monolayers in DMEM GlutaMAX™-1 (Cat #31966-021, Gibco®, Life Technologies) supplemented with 10% of FBS (fetal bovine serum). Stable EGFP-Lin28A HEK 293-T cells were cultured as monolayers in DMEM supplemented with 10% of FBS (fetal bovine serum) and 0.5 mg/ml Geneticin G418 (10131-035, Life Technologies). Transfections were performed according to the manufacturer's protocol with […] (12252-011, Invitrogen, Life Technologies) for siRNAs and JetPEI (101-10, Polyplus transfections) was used for plasmid DNA. […]
# 160,000 HEK 293 T cells were seeded per well in 6 well plates and transfected with 320 ng pEGFP-C2-Lin28A plasmid according to the experimental setup with the reagents described above and cells were allowed to recover for 48h. […] The EGFP-lin28A| expressing cells were sorted using Fluorescence Activated Cell Sorting (FACS). Finally, larger colonies of individual clones were analyzed for expression levels of EGFP-Lin28A by performing the FRET assay. […]
# FRET system (EGFP-Lin28A and 19B-let7a) treated with DMSO was used as positive control. […] The FRET measurements were obtained from the optimized fluorescence parameter. […] The average signal intensity and background fluorescence were corrected with compound self-fluorescence with and without binding buffer.
# [3] = test system: YP-MEL NCM tumor; assay: YP-MEL NCM tumor xenograft in SCID mice; type: in vivo; conditions: female SCID mice, 4 mg/kg I.P, every 2 days
# Description: FIG. 13A&B: Female SCID YP-MEL NCM tumor bearing mice treated with 4 mg/kg Compound of formula (I) (P1 version) intraperitoneally (I.P). […] (B) Tumor areas were measured with a Vernier caliper (prior to each treatment cycle). Animals were euthanized when the control (0.1% DMSO:PBS) treated mice reached the defined endpoint of 225 mm^2. Data representative of at least 5 independent experiments.
# All animal procedures were carried out in accordance with the guidelines of the Canadian Council on Animal Care and the NIH guidelines on the care and use of laboratory animals. All protocols were reviewed and approved by the Animal Care Committee of the University of Calgary (Protocol approval number: AC21-0147). Six- to eight-week-old female or male CB17 severe combined immunodeficiency (SCID) mice (Charles River Laboratories, Saint-Constant, QC, Canada) were subcutaneously injected in the right flank with 3×10^6 YP-MEL or NT-2 cells suspended in 0.1 mL sterile PBS. After tumor injection, animals with detectable tumor growth of at least 50 mm^2 were randomized into groups. […] Animals and respective cages were monitored for food and bedding supplies daily; doses were injected every 2 days and tumor areas were measured with a Vernier caliper (prior to each treatment cycle). […]
smiles,measurement,setting,value
CC[C@H](C)[C@H](NC(=O)[C@H](Cc1ncc[nH]1)NC(=O)c1cccc(C(N)=O)c1)C(=O)Nc1ccc(O)c(-c2nc3ccccc3s2)c1 [Compound P1],share of total cell count that had undergone cell death,[1],approximately 10%
same,reduction in FRET,[2],70%
same,growth of NCM tumors,[3],significantly reduced the growth
